Each structure is given as a SMILES string.

The IC50 is the concentration needed to halve the response being measured. Read a high IC50 as lower potency.

The target in this assay is T1, YAP-TEAD interaction (full length human TEAD1-Gal4 fusion, full length YAP mutant S127A, S397A) (UniProt P04386+P28347).
T1 construct: The TEAD1 construct was prepared by cloning the full length human TEAD1 cDNA; expressed in transfected cells; host or cells: HEK293 GripTite 293 MSR (Invitrogen R795-07), transiently transfected with pSG5_CMV plasmids
T1 sequence (P04386+P28347 fused, stated change not applied): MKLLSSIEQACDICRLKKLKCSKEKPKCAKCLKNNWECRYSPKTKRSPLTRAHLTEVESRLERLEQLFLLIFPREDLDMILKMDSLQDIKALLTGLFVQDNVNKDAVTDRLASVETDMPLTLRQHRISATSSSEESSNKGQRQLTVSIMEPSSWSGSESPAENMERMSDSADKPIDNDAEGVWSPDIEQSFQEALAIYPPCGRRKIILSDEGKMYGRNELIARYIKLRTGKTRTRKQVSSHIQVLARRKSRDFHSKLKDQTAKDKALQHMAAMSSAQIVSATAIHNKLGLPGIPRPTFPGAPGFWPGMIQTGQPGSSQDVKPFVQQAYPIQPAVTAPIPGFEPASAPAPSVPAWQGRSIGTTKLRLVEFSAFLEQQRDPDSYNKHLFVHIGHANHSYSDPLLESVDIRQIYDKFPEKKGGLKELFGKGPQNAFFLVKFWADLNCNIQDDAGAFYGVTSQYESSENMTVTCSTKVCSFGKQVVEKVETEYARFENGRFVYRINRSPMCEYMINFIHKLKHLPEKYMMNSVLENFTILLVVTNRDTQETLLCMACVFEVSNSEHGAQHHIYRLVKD
Briefly: Cell-based TEAD-GAL4 transactivation assay (luciferase reporter, HEK293). To be noted: HEK293 cells, compounds 0.1 μM to 30 μM, 24 h, concentration that inhibited the luciferase activity by 50%. Here is the method:
To identify inhibitors of YAP-TEAD interaction, a transient transactivation assays was carried out into HEK293 cell line (HEK293 GripTite™ 293 MSR (Invitrogen R795-07)) using plasmids containing the full length TEAD1 sequences, the full length YAP mutant (S127A, S397A) and a luciferase gene reporter. All expression constructs were performed into pSG5 backbone plasmid in which the SV40 promoter was replaced by the CMV promoter. The TEAD1 construct was prepared by cloning the full length human TEAD1 cDNA in fusion with the Gal4 DNA Binding Domain (AA 1-148) into pSG5_CMV to create the TEAD1(FL)_hum_pSG5Gal4_CMV. The full length YAP mutant (S127A, S397A) was also cloned into pSG_5 CMV to create the YAP(FL)_hum_pSG5_[…]. The reporter plasmid GAL4(5×RE)_[…]_pGL3-Basic contains 5 copies of the GAL4 responsive element (5′-TCGGAGGACAGTACTCC-3′) upstream of the thymidine kinase (TK) promoter (−105/+56) inserted in a pGL3-Basic vector. To evaluate the selectivity of our compounds in blocking the YAP-TEAD interaction, a counter-screening protein-protein interaction transactivation assays was also established. Briefly, two other expression plasmids, the pBD-P53 which express the P53 (AA 72-390) in fusion with Gal4 and the pAD-SV40T which express the SV40 large T antigen (AA 84-708,AgT), were created. HEK293 cells were seeded at 5×10^4 cells/well in 96 well plates (assay plates) in DMEM medium containing 4.5 g/L D-glucose, 10% high inactivated (HI) fetal bovine serum 1% Glutamax, 1% non-essential amino acid and 1% sodium pyruvate and 0.5% penicillin/streptomycin 37° C. in a humidified atmosphere of 8% CO2. After 24 h, transfections are performed using Jet-PEI as transfectant (101B-010 Polyplus Transfection), according to the instructions of the manufacturer (N/P=10) and a ratio YAP/TEAD=10 (per well: 50 ng of YAP(FL), 5 ng of TEAD(FL) and 50 ng of reporter plasmid). Six hours after cell transfection, the plates (‘assay plate’) were washed with 100 μl PBS per well and cell were treated with compounds in semi-log from 0.1 μM to 30 μM or DMSO 0.5% as control in DMEM 4.5 g/L D-Glucose without phenol red, 0.3% BSA, 1% glutamax, 1% NEAA, 1% sodium pyruvate. Twenty-four hours later, the luciferase activity was determined after addition of 100 μl of Steady Glo™ luciferase assay system (Promega E2550) according to the manufacturer's directions. Luciferase activity in cell extracts is measured by reading luminescence using the Envision device.
The cellular response was determined by fitting the concentration response curves using a 3-parameter curve fit equation and determining the concentration that inhibited the luciferase activity by 50%.
In turn, `COc1cc(C2=NN(C3=NS(=O)(=O)c4ccccc43)CC(C)(C)C2)ccc1F` [Ex 110, 3-[6-(4-fluoro-3-methoxy-phenyl)-4,4-dimethyl-3,5-dihydropyridazin-2-yl]-1,2-benzothiazole 1,1-dioxide] showed an IC50 of 3.23 µM.
Compound `CSc1cc(/C=N/N(CC(C)C)C2=NS(=O)(=O)c3ccccc32)ccc1F` [Ex 107, N-[(E)-(4-fluoro-3-methylsulfanyl-phenyl)methyleneamino]-N-isobutyl-1,1-dioxo-1,2-benzothiazol-3-amine] yielded a concentration for half-maximal inhibition (IC50) of 2.14 µM.
Regarding `COCn1c(=O)n(C2CCC2)c2cc(/C=N/N(C)C3=NS(=O)(=O)c4ccccc43)ccc21` [Ex 111, 3-cyclobutyl-5-[(E)-[(1,1-dioxo-1,2-benzothiazol-3-yl)-methyl-hydrazono]methyl]-1-(methoxymethyl)benzimidazol-2-one], the IC50 worked out at 8.57 µM.
The result for `COc1cc(/C=N/N(CC2CCC2)C2=NS(=O)(=O)c3cc(B(O)O)ccc32)ccc1F` [Ex 80, [3-[cyclobutylmethyl-[(E)-(4-fluoro-3-methoxy-phenyl)methyleneamino]amino]-1,1-dioxo-1,2-benzothiazol-6-yl]boronic acid] reads 1.07 µM; that for `Cc1ccc2c(c1)C(N(C)/N=C/c1ccc3[nH]c(=O)n(C)c3c1)=NS2(=O)=O` [Ex 70, 3-methyl-5-[(E)-[methyl-(5-methyl-1,1-dioxo-1,2-benzothiazol-3-yl) hydrazono]methyl]-1H-benzimidazol-2-one], 1.58 µM; that for `CC(C)n1c(=O)[nH]c2ccc(/C=N/N(C)C3=NS(=O)(=O)c4ccccc43)cc21` [Ex 26, 5-[(E)-[(1,1-dioxo-1,2-benzothiazol-3-yl)-methyl-hydrazono]methyl]-3-isopropyl-1H-benzimidazol-2-one], 0.62 µM.
The result for `CCOCn1c(=O)n(C2CCC2)c2cc(/C=N/N(C)C3=NS(=O)(=O)c4ccccc43)ccc21` [Ex 116, 3-cyclobutyl-5-[(E)-[(1,1-dioxo-1,2-benzothiazol-3-yl)-methyl-hydrazono]methyl]-1-(ethoxymethyl)benzimidazol-2-one] reads 5.03 µM; that for `COc1cc(/C=N/N(C)C2=NS(=O)(=O)c3ccc([N+](=O)[O-])cc32)ccc1F` [Ex 47, N-[(E)-(4-fluoro-3-methoxy-phenyl)methyleneamino]-N-methyl-5-nitro-1,1-dioxo-1,2-benzothiazol-3-amine], 3.4 µM; that for `COc1cc(/C=N/N(CC(C)C)C2=NS(=O)(=O)c3ccc(OCB(O)O)cc32)ccc1F` [Ex 95, [3-[[(E)-(4-fluoro-3-methoxy-phenyl)methyleneamino]-isobutyl-amino]-1,1-dioxo-1,2-benzothiazol-5-yl]oxymethylboronic acid], 1.35 µM.
In the case of `COc1cc(/C=N/N(CC(C)C)C2=NS(=O)(=O)c3cc(B4OC(=O)CN(C)CC(=O)O4)ccc32)ccc1F` [Ex 69, 2-[3-[[(E)-(4-fluoro-3-methoxy-phenyl)methyleneamino]-isobutyl-amino]-1,1-dioxo-1,2-benzothiazol-6-yl]-6-methyl-1,3,6,2-dioxazaborocane-4,8-dione], the 50% inhibitory concentration (IC50) was determined as 1.04 µM.
The compound `COc1cc(/C=N/N(C2=NS(=O)(=O)c3cc(B(O)O)ccc32)C(C)C)ccc1F` [Ex 102, [3-[[(E)-(4-fluoro-3-methoxy-phenyl)methyleneamino]-isopropyl-amino]-1,1-dioxo-1,2-benzothiazol-6-yl]boronic acid] showed an IC50 of 3.01 µM.
Compound `COc1cc(/C=N/N(C)C2=NS(=O)(=O)c3cc(N)ccc32)ccc1F` [Ex 49, N3-[(E)-(4-fluoro-3-methoxy-phenyl)methyleneamino]-N3-methyl-1,1-dioxo-1,2-benzothiazole-3,6-diamine] returned an IC50 of 3.11 µM.
The result for `CCOc1ccc2c(c1)S(=O)(=O)N=C2N(CC(C)C)/N=C/c1ccc2c(c1)C(CC)(CC)C(=O)N2` [Ex 97, 5-[(E)-[(6-ethoxy-1,1-dioxo-1,2-benzothiazol-3-yl)-isobutyl-hydrazono]methyl]-3,3-diethyl-indolin-2-one] reads 2.77 µM.

The values are drawn from patent US20200115353A1, “NEW COMPOUNDS INHIBITORS OF THE YAP/TAZ-TEAD INTERACTION AND THEIR USE IN THE TREATMENT OF MALIGNANT MESOTHELIOMA” (INVENTIVA, priority 2017, published 2020).
